Results as given in ChEMBL document CHEMBL1201862, “PubChem BioAssay data set” (2004).
Activity calls are given as the source filed them.

What was measured:
[1] = HEK-293T viability loss after treatment – luminescence, T-cell screen hits, cytotoxicity control for TCR NF-kB inhibitor project, dose response (AID 489026); format: functional, cell-based;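 further: cells exposed to compound about 14 hours before the viability readout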
[2] = Luminescence Cell-Based Dose Retest to Confirm Inhibitors of Cancer Stem Cells. [Related pubchem assays (depositor defined):AID2717, AID2721]; format: functional, Homo sapiens; conditions: Homo sapiens
cells [3] = format: functional, cell-based
cells [4] = format: functional, cell-based; remark: listed apart in the source
[5] = target: T1, Heat shock factor protein 1 (Mus musculus, UniProt P38532); assay: decrease of HSF1-responsive luciferase luminescence – cell-based, NIH3T3, dose retest, confirmation (AID 2382); format: functional;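 further: NIH3T3 fibroblasts with HSF1-driven luciferase reporter stressed by proteasome inhibitor MG132; luminescence from HSF1-driven luciferase expression after 8 hours of MG132 stress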
T1 sequence (P38532 whole entry): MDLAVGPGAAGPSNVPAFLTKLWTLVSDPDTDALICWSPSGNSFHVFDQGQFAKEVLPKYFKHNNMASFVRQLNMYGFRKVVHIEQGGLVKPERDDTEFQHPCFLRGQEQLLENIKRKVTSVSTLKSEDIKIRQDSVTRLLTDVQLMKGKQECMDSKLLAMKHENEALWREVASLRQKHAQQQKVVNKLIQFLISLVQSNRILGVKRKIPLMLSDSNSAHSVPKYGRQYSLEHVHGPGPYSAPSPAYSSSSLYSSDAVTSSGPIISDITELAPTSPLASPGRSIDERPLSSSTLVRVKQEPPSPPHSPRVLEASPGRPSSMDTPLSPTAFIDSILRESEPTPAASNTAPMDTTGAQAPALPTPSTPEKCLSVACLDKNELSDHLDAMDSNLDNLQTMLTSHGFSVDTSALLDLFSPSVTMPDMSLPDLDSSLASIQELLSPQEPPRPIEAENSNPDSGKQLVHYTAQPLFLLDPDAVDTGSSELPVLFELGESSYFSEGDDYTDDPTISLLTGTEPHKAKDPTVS

[6] = target: T2, Rac GTPase-activating protein 1 (Homo sapiens, UniProt Q9H0H5); assay: blockers of MgcRacGAP-driven Rac1 GTP hydrolysis – biochemical, ADP Hunter fluorescence, primary and confirmatory, confirmation (AID 624330); format: functional
T2 sequence (Q9H0H5 whole entry): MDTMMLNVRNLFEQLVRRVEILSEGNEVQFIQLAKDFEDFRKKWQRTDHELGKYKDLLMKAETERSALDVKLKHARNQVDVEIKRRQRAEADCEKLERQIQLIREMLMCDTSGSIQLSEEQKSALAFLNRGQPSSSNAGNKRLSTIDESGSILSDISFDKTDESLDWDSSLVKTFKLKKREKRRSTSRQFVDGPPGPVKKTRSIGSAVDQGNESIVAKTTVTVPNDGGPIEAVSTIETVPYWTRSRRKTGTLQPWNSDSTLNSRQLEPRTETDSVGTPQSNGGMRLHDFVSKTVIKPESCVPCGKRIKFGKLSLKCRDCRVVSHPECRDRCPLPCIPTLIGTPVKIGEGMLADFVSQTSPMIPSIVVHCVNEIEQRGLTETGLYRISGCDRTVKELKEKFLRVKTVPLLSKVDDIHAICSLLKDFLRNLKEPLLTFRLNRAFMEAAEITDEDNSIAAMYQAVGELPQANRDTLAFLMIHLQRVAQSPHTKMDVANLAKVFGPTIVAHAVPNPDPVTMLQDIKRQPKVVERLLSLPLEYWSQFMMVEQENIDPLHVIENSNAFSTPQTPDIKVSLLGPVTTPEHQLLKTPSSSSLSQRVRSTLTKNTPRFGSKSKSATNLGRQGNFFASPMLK

[7] = target: FAD-linked sulfhydryl oxidase ALR (Homo sapiens, UniProt P55789); assay: ALR-catalysed DTT oxidation blockers – biochemical, H2O2 detection, luminescence, cherry-pick, dose response (AID 493248)
Sequence of FAD-linked sulfhydryl oxidase ALR (P55789 whole entry): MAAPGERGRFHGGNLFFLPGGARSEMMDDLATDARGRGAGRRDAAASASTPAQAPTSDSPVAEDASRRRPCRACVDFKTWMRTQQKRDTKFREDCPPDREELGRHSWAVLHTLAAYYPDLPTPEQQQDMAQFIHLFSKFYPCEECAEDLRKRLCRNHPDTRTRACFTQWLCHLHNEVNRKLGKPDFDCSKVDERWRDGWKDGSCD

[8] = target: T3, Short transient receptor potential channel 4 (Mus musculus, UniProt Q9QUQ5); assay: block of DAMGO-driven TRPC4 calcium entry – cell-based, HEK293 TRPC4/mu-opioid, Fluo-4 calcium, dose response (AID 434942); format: functional;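 further: potency of inhibitors blocking the TRPC4 calcium response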
T3 sequence (Q9QUQ5 whole entry): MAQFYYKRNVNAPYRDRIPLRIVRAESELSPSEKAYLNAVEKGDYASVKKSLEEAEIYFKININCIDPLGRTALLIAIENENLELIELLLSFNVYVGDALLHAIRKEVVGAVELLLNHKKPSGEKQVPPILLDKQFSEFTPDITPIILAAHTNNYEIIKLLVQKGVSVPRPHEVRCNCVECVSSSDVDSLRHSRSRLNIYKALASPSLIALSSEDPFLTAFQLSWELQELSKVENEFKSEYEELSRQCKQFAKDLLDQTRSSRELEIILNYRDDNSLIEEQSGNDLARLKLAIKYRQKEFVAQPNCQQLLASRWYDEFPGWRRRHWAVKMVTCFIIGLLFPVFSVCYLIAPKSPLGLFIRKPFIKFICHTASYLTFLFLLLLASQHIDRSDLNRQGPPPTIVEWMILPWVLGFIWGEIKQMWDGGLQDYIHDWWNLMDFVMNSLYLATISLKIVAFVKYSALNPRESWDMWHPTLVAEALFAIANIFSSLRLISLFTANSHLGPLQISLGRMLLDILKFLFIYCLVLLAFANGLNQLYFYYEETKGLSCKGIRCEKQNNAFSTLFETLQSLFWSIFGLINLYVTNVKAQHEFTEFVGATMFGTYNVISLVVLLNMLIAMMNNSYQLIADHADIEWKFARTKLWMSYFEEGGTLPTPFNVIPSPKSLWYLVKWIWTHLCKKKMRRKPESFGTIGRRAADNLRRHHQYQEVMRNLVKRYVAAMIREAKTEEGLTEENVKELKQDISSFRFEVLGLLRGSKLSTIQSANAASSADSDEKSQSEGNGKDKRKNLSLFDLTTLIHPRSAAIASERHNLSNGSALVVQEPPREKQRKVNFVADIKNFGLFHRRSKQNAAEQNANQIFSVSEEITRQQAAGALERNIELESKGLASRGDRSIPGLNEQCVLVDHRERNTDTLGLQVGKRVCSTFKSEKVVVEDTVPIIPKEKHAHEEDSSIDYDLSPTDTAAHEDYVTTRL

[9] = target: Induced myeloid leukemia cell differentiation protein Mcl-1 (Homo sapiens, UniProt Q07820); format: functional
Sequence of Induced myeloid leukemia cell differentiation protein Mcl-1 (Q07820 whole entry): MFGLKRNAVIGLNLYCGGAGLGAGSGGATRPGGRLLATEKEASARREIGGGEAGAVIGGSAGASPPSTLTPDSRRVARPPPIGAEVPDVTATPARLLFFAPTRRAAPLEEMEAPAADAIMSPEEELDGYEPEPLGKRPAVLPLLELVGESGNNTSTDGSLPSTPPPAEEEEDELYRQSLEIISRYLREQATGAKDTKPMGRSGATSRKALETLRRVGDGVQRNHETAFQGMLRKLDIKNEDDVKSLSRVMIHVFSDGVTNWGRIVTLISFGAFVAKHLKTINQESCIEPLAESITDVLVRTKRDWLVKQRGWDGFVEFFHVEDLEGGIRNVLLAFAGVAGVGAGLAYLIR

[10] = target: T4, Histone-lysine N-methyltransferase NSD2 (Homo sapiens, UniProt O96028); format: biochemical
T4 sequence (O96028 whole entry): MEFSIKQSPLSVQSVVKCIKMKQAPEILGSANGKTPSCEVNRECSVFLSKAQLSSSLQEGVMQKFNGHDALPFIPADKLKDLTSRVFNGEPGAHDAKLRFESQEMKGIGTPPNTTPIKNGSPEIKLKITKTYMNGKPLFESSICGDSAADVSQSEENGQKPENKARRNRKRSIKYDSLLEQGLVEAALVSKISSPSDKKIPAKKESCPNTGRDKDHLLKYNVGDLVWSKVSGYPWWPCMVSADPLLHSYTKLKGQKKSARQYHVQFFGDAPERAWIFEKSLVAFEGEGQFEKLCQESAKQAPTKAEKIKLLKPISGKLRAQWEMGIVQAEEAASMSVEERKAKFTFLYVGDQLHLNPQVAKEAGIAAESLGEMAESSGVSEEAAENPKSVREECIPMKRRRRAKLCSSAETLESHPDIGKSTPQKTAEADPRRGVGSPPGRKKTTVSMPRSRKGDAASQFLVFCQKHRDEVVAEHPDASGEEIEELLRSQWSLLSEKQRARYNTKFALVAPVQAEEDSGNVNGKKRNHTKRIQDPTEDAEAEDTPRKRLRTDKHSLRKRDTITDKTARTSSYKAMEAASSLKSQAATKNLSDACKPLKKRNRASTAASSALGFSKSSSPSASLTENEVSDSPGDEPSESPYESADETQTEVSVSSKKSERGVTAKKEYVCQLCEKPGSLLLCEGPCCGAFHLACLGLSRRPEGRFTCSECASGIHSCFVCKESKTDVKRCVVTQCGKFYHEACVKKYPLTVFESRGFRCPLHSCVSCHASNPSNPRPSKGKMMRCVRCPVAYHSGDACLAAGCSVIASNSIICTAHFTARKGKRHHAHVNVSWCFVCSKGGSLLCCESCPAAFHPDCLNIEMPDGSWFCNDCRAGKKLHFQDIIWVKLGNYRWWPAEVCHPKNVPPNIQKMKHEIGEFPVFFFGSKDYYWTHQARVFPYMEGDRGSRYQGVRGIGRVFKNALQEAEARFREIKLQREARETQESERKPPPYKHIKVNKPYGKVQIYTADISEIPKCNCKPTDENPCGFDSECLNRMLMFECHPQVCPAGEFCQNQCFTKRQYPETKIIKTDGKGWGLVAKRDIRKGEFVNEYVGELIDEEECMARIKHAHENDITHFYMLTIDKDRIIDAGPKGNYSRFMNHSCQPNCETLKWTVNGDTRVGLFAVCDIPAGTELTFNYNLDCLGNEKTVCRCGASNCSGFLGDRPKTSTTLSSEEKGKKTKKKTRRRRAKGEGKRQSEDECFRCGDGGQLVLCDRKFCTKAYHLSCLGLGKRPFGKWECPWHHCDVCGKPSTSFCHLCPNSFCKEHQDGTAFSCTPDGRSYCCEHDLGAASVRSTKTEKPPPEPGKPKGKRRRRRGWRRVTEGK

[11] = microbe, parasite or virus in culture; format: functional; conditions: Mycobacterium tuberculosis
[12] = viability of uninfected HEp-2 cells – cell-based, HTS, cytotoxicity control for RSV inhibitor project, dose response (AID 2410); format: functional; conditions: human respiratory syncytial virus
HEK293 [13] = assay: NOD2 signaling inhibitors in MDP-stimulated cells, cell-based, uHTS, luminescence (AID 2001); format: functional; conditions: Homo sapiens
HEK293 [14] = assay: inhibition of NOD1-driven NF-kB reporter – cell-based, luminescence, uHTS, primary screen (AID 1578); format: functional; conditions: Homo sapiens
HEK293 [15] = assay: cells; format: functional, cell-based; conditions: Homo sapiens
HEK293 [16] = assay: cells; format: functional, cell-based; conditions: Homo sapiens; remark: listed apart in the source
[17] = Luminescence Cell-Based Dose Response HTS to Identify Inhibitors of 5'UTR Stem-Loop Driven Prion Protein mRNA Translation in H4 Neuroglioblastoma Cells. [Related pubchem assays: 1827 (Project Summary), 1813 (Primary HTS)]; format: functional
[18] = luciferase reporter signal suppression in cells – H4 neuroglioma cells, luminescence, dose response (AID 1990); format: functional, cell-based
[19] = alpha-synuclein stem-loop luciferase translation blockers – H4 neuroglioma cells, luminescence, confirmation (AID 1988); format: functional, cell-based
cells [20] = format: functional
[21] = NIH3T3 cell viability loss – ATP luminescence, mouse fibroblasts, counter-screen, dose response (AID 2010); format: functional, cell-based;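 further: cells exposed to compound for about 90 hours before reading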
[22] = Trypanosoma cruzi growth suppression in host cells – NIH3T3 host cells, beta-gal luminescence, confirmation (AID 2044); format: functional, cell-based;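 further: intracellular parasites grown in NIH/3T3 mouse fibroblasts as host cells; luminescent beta-galactosidase reporter signal from transgenic T. cruzi replicating inside host cells; inhibitors lower the luminescence signal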
INS1 = assay: INS-1E survival protection against cytokine death – cell-based, luminescence, retest, dose response (AID 449756); format: functional; conditions: Rattus norvegicus;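 further: cell death triggered by IL-1 beta plus TNF-alpha plus IFN-gamma mixture; protective hits raise ATP signal compared with cytokine alone wells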

COc1cc(-c2noc(C)c2/C=C/c2ccc(OC(C)=O)cc2)cc(OC)c1OC
IC50 [1]: 52.8 µM (inactive) | AC50 [2]: 0.222 µM (active)

CCC(=O)N1CCc2cc(S(=O)(=O)NCCC(=O)N3CCN(c4cccc(OC)c4)CC3)ccc21
EC50 (cells [3]): > 350 µM (not active) | EC50 (cells [4]): > 350 µM (not active)

COc1ccc(Nc2ncnc3ccc(Br)cc23)c(OC)c1
EC50 [5]: 0.354 µM (active) | IC50 [1]: > 80 µM (inactive)

O=C(CSc1nnc(-c2ccncc2)o1)N1CCCCCC1
EC50 (cells [3]): > 350 µM (not active) | EC50 (cells [4]): > 350 µM (not active)

Nc1ccc(N2CCN(c3ccccc3)CC2)c(F)c1
IC50 [6]: 46.6 µM (active) | AC50 [7]: 13.2 µM (active)

NC(=O)c1nsc(C(=O)N(Cc2ccco2)C(C(=O)NCC2CCCO2)c2ccc(F)cc2)c1N (stereo unspecified)
EC50 [8]: 10.6 µM (active)

O=C1NC(=S)N/C1=C/c1cccn1-c1ccc([N+](=O)[O-])cc1
IC50 [9]: 4.63 µM (not active)

CNCc1ccccc1OCc1ccccc1F
IC50 [9]: 0.557 µM (active) | AC50 [10]: > 20 µM (inactive)

COc1ccc(/C=C/CN2CCC(CO)(Cc3ccccc3Cl)CC2)cc1
CC50 [11]: 32.7 µM (active)

Cc1c(C(=O)OC2CCCC2)[nH]c2c1C(=O)CC(c1ccco1)C2 (stereo unspecified)
IC50 [1]: > 80 µM (inactive)

CCN(CC)c1ccc([N+](=O)[O-])c2cccnc12
EC50 [8]: 10.6 µM (active) | CC50 [12]: 36.7 µM (active)

O=C(c1[nH]nc2c1CCc1ccccc1-2)N1CCN(Cc2ccc3c(c2)OCO3)CC1
IC50 (HEK293 [13]): 5.11 µM (active) | EC50 (HEK293 [14]): 5.4 µM (active) | IC50 (HEK293 [15]): 8.27 µM (active) | IC50 (HEK293 [16]): 4.07 µM (active)

CC(C)CCN1CCN(Cc2ccsc2)CC1CCO (stereo unspecified)
EC50 [8]: 4.22 µM (active)

CCS(=O)(=O)N1CCN(C(C)CCc2ccccc2)CC1 (stereo unspecified)
IC50 [9]: 6 µM (not active)

COc1ccc2c(c1)c(C(=O)CN1CCc3ccccc3C1)c(C)n2C
EC50 (cells [3]): > 350 µM (not active) | EC50 (cells [4]): > 350 µM (not active)

CCCCOc1ccc(CSCCN=C(N)N)cc1
EC50 [8]: 3.35 µM (active)

CCOc1ccc(S(=O)(=O)N2c3ccccc3CC2C)cc1 (stereo unspecified)
EC50 [17]: 7.42 µM (active) | EC50 [18]: 7.65 µM (inconclusive) | EC50 [19]: 3.2 µM (active) | IC50 [1]: > 80 µM (inactive)

CCC1(C(=O)c2ccccc2)C(c2ccc([N+](=O)[O-])cc2)C1(C(=O)OC)C(=O)OC (stereo unspecified)
EC50 [8]: 4.22 µM (active)

Cn1c(CNc2ccccc2O)nc2ccccc21
IC50 (cells [20]): 4.79 µM (active) | CC50 [11]: 30.4 µM (active)

Cc1cc(C(=O)NNc2ccccc2F)no1
EC50 [21]: 5.14 µM (active) | EC50 [22]: 2.26 µM (active) | AC50 [7]: 5.7 µM (active)

C=C1C(O)[C@@H]2O[C@]3(CC[C@H](/C=C/C(C)[C@@H]4CC(C)=CC5(O[C@H](C[C@@](C)(O)CO)CCC5O)O4)O3)CC[C@H]2O[C@@H]1C(O)CC(C)[C@H]1OC2(CCCCO2)CCC1C (stereo partly specified)
AC50 (INS1): 5.98 µM (active) | IC50 [1]: > 80 µM (inactive)

c1ccc2[nH]c(SCc3cn4cccnc4n3)nc2c1
AC50 [7]: 0.194 µM (active)

Cc1nn(C(=O)c2cccc([N+](=O)[O-])c2)c(C)c1Sc1ccccc1
EC50 [8]: 2.66 µM (active)
